Values quoted from earlier work, collected in US11207270B2, “Controlled release dosage forms for high dose, water soluble and hygroscopic drug substances” (priority 2010, dated 2021).

Key:
[1] = tested on: patients suffering from disorders of disturbed sleep, including narcolepsy; settings: human, in vivo
[2] = tested on: non-narcoleptic patients with fibromyalgia
[3] = given orally, in man
[4] = tested on: patients with hyperkinetic movement disorders including ethanol responsive myoclonus and essential tremor; settings: 5 patients

In the case of `O=C(O)CCCO` [GHB, gamma-hydroxy butyrate], the “Stage 3-4 (slow wave) sleep” value [1] is listed as “increase”, the nocturnal awakenings [1] is listed as “decrease” and the “total nocturnal sleep time” value [1] is listed as “increase”. The “estimates of overall wellness” value ([2]; before and after treatment) was “significant improvement”, the “subjective assessments of levels of pain and fatigue” value ([2]; over all 4 weeks of treatment compared to baseline) was “significant improvements” and the plasma levels (immediate release formulation, dose between about 2.25 g and 4.5 g, within 4 hours of ingestion) was “below 10 ug/mL”. The Cmax/Cmin ratio (two separate immediate release doses, over a six hour period) was “greater than 4”.

For `O=C([O-])CCCO.[Na+]` [sodium oxybate], the plasma half-life [3] is listed as “about 45 minutes”, the “blinded ratings of ethanol responsive myoclonus and tremor” value [4] is listed as “dose-dependent improvements” and the tolerability [4] is listed as “tolerated at doses that provided clinical benefit”.
